{
  "source": "patent US20190381025A1",
  "about": "“SOLID DISPERSIONS OF (R)-N-((4-METHOXY-6-METHYL-2-OXO-1,2-DIHYDROPYRIDIN-3-YL)METHYL)-2-METHYL-1-(1-(1-(2,2,2-TRIFLUOROETHYL)PIPERIDIN-4-YL)ETHYL)-1H-INDOLE-3-CARBOXAMIDE” (Constellation Pharmaceuticals, Inc., priority 2017, published 2019)",
  "experiment": "pharmacokinetic studies (PK) of solid dispersions in fasted, famotidine or pentagastrin pre-treated dogs",
  "type": "in vivo",
  "settings": "above pH 2.5; dogs following pre-treatment with famotidine (FIG. 1)",
  "procedure": "Several rounds of pharmacokinetic studies (PK) were performed and included four diverse solid dispersions comprising 50 wt % amorphous (R)—N-((4-methoxy-6-methyl-2-oxo-1,2-dihydropyridin-3-yl)methyl)-2-methyl-1-(1-(1-(2,2,2-trifluoroethyl)piperidin-4-yl)ethyl)-1H-indole-3-carboxamide and PVP, PVP-PA with NaHCO3, HPMC, and HPMC-AS polymer systems, in fasted, famotidine treated dogs at a 30 mg/kg dose.\nAll solid dispersions were prepared as aqueous suspensions at 60 mg/mL in the toxicology vehicle, 0.5% MC/0.1% Tween 80 and does with 30 minutes of preparation. All dogs tested were carried over from study to study.",
  "data": [
    {"smiles": "COc1cc(C)[nH]c(=O)c1CNC(=O)c1c(C)n([C@H](C)C2CCN(CC(F)(F)F)CC2)c2ccccc12", "note": "[(R)—N-((4-methoxy-6-methyl-2-oxo-1,2-dihydropyridin-3-yl)methyl)-2-methyl-1-(1-(1-(2,2,2-trifluoroethyl)piperidin-4-yl)ethyl)-1H-indole-3-carboxamide]", "values": [
      {"measurement": "absorption", "value": "reduced absorption"}
    ]}
  ]
}
